Laboratory results taken from patent US20150094354A1, “METHOD FOR TREATING CELL PROLIFERATIVE DISORDER BY INHIBITING C1GALT1 EXPRESSION” (National Taiwan University, priority 2013, published 2015).

System: MET
Test: HGF-induced dimerization of MET (BS3 cross-linking, Western blotting)
Format: cell-based, human
Settings: 25 ng/mL HGF
Procedure: MET is also called hepatocyte growth factor receptor (HGFR). The MET gene is an important protooncogene in a variety of human cancers. To analyze dimerization of MET, hepatocellular carcinoma cells are incubated with or without 25 ng/mL of human HGF in DMEM on ice for 5 minutes. Cross-linker Bis(sulfosuccinimidyl) suberate (BS3, 0.25 mmol/L, Thermo Scientific) is added to cells and reacted at 37° C. for 5 minutes. Cells are then transferred on ice for 10 minutes. Reactions are blocked by adding 50 mmol/L of Tris-HCl (pH 7.4). Cell lysates are separated by 6% SDS-PAGE and immunoblotted with anti-MET antibody.
Because HGF-induced dimerization of MET is an initial and crucial step for the activation of MET signaling, whether C1GALT1 could affect MET dimerization was analyzed. FIGS. 19A-19B are autoradiograms illustrating the effects of C1GALT1 on dimerization of MET in hepatocellular carcinoma cells in accordance with an embodiment of the present invention. Hepatocellular carcinoma cells were starved for 5 hours and then treated with (+) or without (−) 25 ng/mL of HGF. Cell lysates were cross-linked by BS3 and then analyzed by Western blotting with anti-MET antibody. The arrows indicate the dimer (D) of MET, and the arrowheads indicate the monomer (M). Markers of molecular weight are shown on the left. GAPDH is an internal control.

C1GALT1 si-1: siRNA oligonucleotide against C1GALT1, presumably SEQ ID NO: 1, UUAGUAUACGUUCAGGUAAGGUAGG (chemistry not given here)
HGF-induced dimerization of MET (HA22T cells): suppressed
HGF-induced dimerization of MET (PLC5 cells): suppressed
